Source: patent US20190336519A1, “APPLICATION OF ALBIFLORIN AS INDOLEAMINE 2,3-DIOXYGENASE (IDO) INHIBITOR” (priority 2017, published 2019)
Entries after “also recorded” stand apart in the source; their conditions may differ. Blank lines part the entries; values can stand above or below the compound they belong to.

Tests used:
[1] = tested on: LPS-induced mouse inflammatory depression-like behaviors; test: Behavioral tests (Forced Swimming Test, Tail Suspension Test) in mice after modeling with LPS; assay type: in vivo; conditions: High dose group (14 mg/kg), gavage 7 days, 24 h after LPS
Experimental: (§1) The mice were randomly divided into 6 groups (16 for each group): Blank group, Model group, Fluoxetine hydrochloride (a positive drug) group (10 mg/kg), Low dose of albiflorin group (3.5 mg/kg), Medium dose of albiflorin group (7 mg/kg), and High dose of albiflorin group (14 mg/kg), and administered continuously by gavage for 7 days.
1. The behavioral tests: Forced Swimming Test (FST), Tail Suspension Test (TST) and Open Field Test (OFT)
(§2) On the 7th day after administration, LPS was injected intraperitoneally (0.83 mg/kg) for modeling. At 16 h after the injection, the Open Field Test (OFT) was carried out; at 24 h after the injection, the Forced Swimming Test (FST) and Tail Suspension Test (TST) were carried out. Thereafter, the blood was taken by enucleating eyeball, and centrifuged to collect the plasma. After the mice were sacrificed, the hippocampal tissues were taken out and quickly frozen in liquid nitrogen, and stored at −80° C.
(§3) The test data are shown in mean±SE, and originPro8.0 software was used for the statistical analysis of the data and plotting.

IDO = target: T1, IDO (Mus musculus, UniProt P28776); test: Ratio of kynurenine/tryptophan (IDO activity) in mouse hippocampal tissue after modeling with LPS; assay type: in vivo; conditions: LPS mice, gavage 7 days
T1 construct: ratio of kynurenine/tryptophan (KYN/TrP) in the mouse hippocampal tissue; from tissue; host or cells: mouse hippocampal tissue (LPS model)
Experimental: as §1, §2
3. Determination of the effects of albiflorin and fluoxetine on expression of IDO in the mouse hippocampal tissue.
as §3
The activity of IDO in the hippocampus was expressed through the levels of KYN and TrP and the ratio of KYN/TrP.

[2] = tested on: indoleamine 2,3-dioxygenase (IDO); test: Western Blot of IDO in hippocampal tissue of chronic unpredictable mild stress (CUMS) rats; assay type: in vivo, rat; conditions: for IDO (folds relative to Blank group): CUMS rat hippocampal tissue, Mean±SE
From the text: (§4) 1. […] Western Blot was used to detect the effects of albiflorin on IDO and MT1, and the results are found in FIG. 1:
(§5) Effects of albiflorin on indoleamine 2,3-dioxygenase (IDO) and melatonin receptors 1 (MT1) in the rat hippocampal tissue (Mean±SE)

[3] = tested on: IL-6, TNF-α, CORT in mouse plasma; test: Levels of inflammatory factors and CORT in mouse plasma after modeling with LPS; assay type: in vivo; conditions: LPS mice, gavage 7 days
Experimental: as §1, §2
(§6) 2. Determination of the effects of albiflorin and the positive drug fluoxetine on the concentrations of inflammatory factors IL-6, TNF-α, and PGE2, and glucocorticoid CORT in the mouse plasma and hippocampal tissue.
as §3

[4] = tested on: melatonin receptors 1 (MT1); test: Western Blot of MT1 in hippocampal tissue of chronic unpredictable mild stress (CUMS) rats; assay type: in vivo, rat; conditions: for MT1 (folds relative to Blank group): CUMS rat hippocampal tissue, Mean±SE
From the text: as §4, §5

[5] = tested on: tryptophan metabolic pathway (kynurenine-quinolinic acid / serotonin-melatonin); test: Tryptophan metabolites in hippocampus of CUMS rats; assay type: in vivo, rat; conditions: after 7 days of administration (7 mg/kg, 14 mg/kg)
[6] = tested on: IL-6, TNF-α, CORT in mouse hippocampal tissue; test: ELISA of inflammatory factors and CORT in mouse hippocampal tissue after modeling with LPS; assay type: in vivo; conditions: LPS mice, gavage 7 days
Experimental: as §1, §2, §6, §3
An ELISA assay was used to detect the levels of inflammatory factors IL-6, TNF-α and PGE2, and CORT in the mouse hippocampal tissue.

[7] = CUMS rat, after 7 days of administration (7 mg/day, 14 mg/day), P<0.01
[8] = medium and high doses (7, 14 mg/kg)

T1 sequence (P28776 whole entry): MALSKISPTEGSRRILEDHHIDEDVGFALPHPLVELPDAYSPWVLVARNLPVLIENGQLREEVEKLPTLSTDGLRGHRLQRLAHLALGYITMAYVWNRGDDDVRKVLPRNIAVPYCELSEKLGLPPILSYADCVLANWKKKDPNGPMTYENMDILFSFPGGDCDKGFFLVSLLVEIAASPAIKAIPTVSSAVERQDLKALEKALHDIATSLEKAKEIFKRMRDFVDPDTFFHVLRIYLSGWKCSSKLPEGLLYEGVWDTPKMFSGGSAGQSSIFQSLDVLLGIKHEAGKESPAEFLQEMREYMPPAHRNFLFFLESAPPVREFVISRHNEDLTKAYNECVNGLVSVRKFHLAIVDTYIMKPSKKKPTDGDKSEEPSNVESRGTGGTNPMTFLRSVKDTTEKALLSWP

ratio of kynurenine/tryptophan (KYN/TrP) in the mouse hippocampal tissue compared with Model group (IDO; High dose group (14 mg/kg), P<0.05): decreased
Structure (SMILES): C[C@]12C[C@@H](O)[C@@H]3C[C@@]1(O[C@@H]1O[C@H](CO)[C@@H](O)[C@H](O)[C@H]1O)[C@]3(COC(=O)c1ccccc1)C(=O)O2 [Albiflorin, albiflorin]
immobility time in the Tail Suspension Test compared with Model group [1]: significant difference
activity of IDO in the mouse hippocampal tissue (IDO; High dose (14 mg/kg), 14 mg/kg): significantly inhibited; also recorded: decrease
IDO (folds relative to Blank group) ([2]; 3.5 mg/kg): 1.46 ± 0.014 folds relative to Blank group
IDO (folds relative to Blank group) ([2]; 7 mg/kg): 1.02 ± 0.010 folds relative to Blank group
IDO (folds relative to Blank group) ([2]; 14 mg/kg): 0.80 ± 0.008 folds relative to Blank group
IDO activity in the rat hippocampus [2, 7]: significantly inhibited
concentration of CORT in the mouse plasma [3]: substantially decrease
level of IL-6 in the mouse plasma [3, 8]: substantially decreased
level of TNF-α in the mouse plasma [3, 8]: substantially decreased
MT1 (folds relative to Blank group) ([4]; 3.5 mg/kg): 1.37 ± 0.013 folds relative to Blank group
MT1 (folds relative to Blank group) ([4]; 7 mg/kg): 1.39 ± 0.0014 folds relative to Blank group
MT1 (folds relative to Blank group) ([4]; 14 mg/kg): 1.39 ± 0.014 folds relative to Blank group
melatonin receptors 1 (MT1) in the rat hippocampus [4, 7]: increased significantly
ratio of kynurenine to tryptophan (KYN/TrP) ([5]; CUMS rat hippocampus): downregulated significantly
level of kynurenine in the rat hippocampus ([5]; CUMS rat, P<0.01): decreased significantly
level of melatonin in the hippocampus ([5]; CUMS rat, P<0.01): increased significantly
level of quinolinic acid in the rat hippocampus ([5]; CUMS rat, P<0.01): decreased significantly
level of serotonin in the hippocampus ([5]; CUMS rat, P<0.01): increased significantly
level of IL-6 in the mouse hippocampal tissue compared with Model group ([6]; High dose group (14 mg/kg)): significantly decreased
level of TNF-α in the mouse hippocampal tissue compared with Model group ([6]; High dose group (14 mg/kg)): significantly decreased
level of CORT in the hippocampal tissue [6]: substantially decreased

LPS-induced activation/overexpression of IDO in the hippocampus compared with Model group (IDO; 10 mg/kg): failed to be corrected
Structure (SMILES): CNCCC(Oc1ccc(C(F)(F)F)cc1)c1ccccc1 (stereo not shown) [Fluoxetine, fluoxetine, reference compound]
IDO (folds relative to Blank group) ([2]; 10 mg/kg): 1.29 ± 0.014 folds relative to Blank group
MT1 (folds relative to Blank group) ([4]; 10 mg/kg): 0.50 ± 0.005 folds relative to Blank group
